As a reminder, the IC50 is the point on the concentration scale where inhibition reaches its midpoint.

For the assay, the target named is T1, HDM2 (Homo sapiens, UniProt Q00987).
T1 construct: Recombinant HDM2 (1.5 μg per well) in TBS-BSA buffer
T1 sequence (Q00987 whole entry): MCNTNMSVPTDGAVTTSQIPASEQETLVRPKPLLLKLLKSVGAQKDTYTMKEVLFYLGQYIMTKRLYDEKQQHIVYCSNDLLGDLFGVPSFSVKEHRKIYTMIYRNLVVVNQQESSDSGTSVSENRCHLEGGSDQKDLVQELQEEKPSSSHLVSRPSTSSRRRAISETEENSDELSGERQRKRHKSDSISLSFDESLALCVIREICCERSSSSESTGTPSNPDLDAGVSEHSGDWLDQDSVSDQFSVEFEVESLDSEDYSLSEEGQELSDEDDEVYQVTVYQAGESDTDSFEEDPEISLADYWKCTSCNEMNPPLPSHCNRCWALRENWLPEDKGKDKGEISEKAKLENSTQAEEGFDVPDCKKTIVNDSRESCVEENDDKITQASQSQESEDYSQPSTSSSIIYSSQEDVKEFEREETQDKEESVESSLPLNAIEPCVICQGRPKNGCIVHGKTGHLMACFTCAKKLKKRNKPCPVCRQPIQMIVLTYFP
Nature of the assay: Fluorescence polarisation competitive HDM2 binding assay. As to conditions: fluorescence polarisation format; Table 1; read-out: IC50 In vitro competitive HDM2 binding assay. As to the method: This was carried out using a 96-well microtiter plate (Costar) format. Recombinant HDM2 (1.5 μg per well) in TBS-BSA buffer (50 mM Tris pH 7.4, 150 mM NaCl, and 0.1% BSA) was incubated for 5 min at room temperature in the presence of serially diluted test compound (in TBS-BSA buffer with a final concentration of 5% DMSO). Fluorescently labelled p53-derived peptide (fluorescein-[…]NH2, 0.2 μM) was added to each well and the plate was incubated at room temperature for 45 min. The fluorescence polarisation (excitation 485 nm, emission 520 nm) of the peptide was measured. IC50 values were calculated from dose-response curves.
The fluorescence polarisation competitive HDM2 binding assay described in Example 3 was used. Furthermore, the anti-proliferative potency of the compounds against three human tumour cell lines with different genetic make-up was also determined. […] The cell lines used were as follows: AGS, gastric adenocarcinoma, wild-type p53; H1299, large cell lung carcinoma, p53 null, low HDM2; SJSA-1, primitive multipotential bone sarcoma, wild-type p53, overexpressed HDM2.
(In general: Polarisation of emitted light reports the rotation of a fluorescent probe.)
For `O=S(=O)(Nc1cc(C(F)(F)F)cc(C(F)(F)F)c1)c1c(Cl)nc2sccn12` [Compound 84, 6-Chloro-imidazo[2,1-b]thiazole-5-sulfonic acid (3,5-bis-trifluoro-methyl-phenyl)-amide], the IC50 is 308 ± 17 µM.

`O=S(=O)(Nc1ccc(Cl)cc1)c1ccc2c(c1)OCCO2` [Compound 85, 2,3-Dihydro-benzo[1,4]dioxine-6-sulfonic acid (4-chloro-phenyl)-amide]: the IC50 was found to be 432 ± 7 µM.

For `O=S(=O)(Nc1cc(C(F)(F)F)cc(C(F)(F)F)c1)c1ccc2c(c1)OCCO2` [Compound 86, 2,3-Dihydro-benzo[1,4]dioxine-6-sulfonic acid (3,5-bis-trifluoromethyl-phenyl)-amide], the concentration for half-maximal inhibition (IC50) is 375 ± 39 µM.

With `O=S(=O)(Nc1ccc(Cl)cc1)c1ccc(Oc2ccccc2)nc1` [Compound 87, 6-Phenoxy-pyridine-3-sulfonic acid (4-chloro-phenyl)-amide], the IC50 was determined as 212 ± 27 µM.

For `Cc1c(S(=O)(=O)Nc2ccc(Cl)c([N+](=O)[O-])c2)sc2ccc(Cl)cc12` [Compound 88, 5-Chloro-3-methyl-benzo[b]thiophene-2-sulfonic acid (4-chloro-3-nitro-phenyl)-amide], the IC50 amounted to 174 ± 11 µM.

Consider `O=S(=O)(Nc1cc(C(F)(F)F)cc(C(F)(F)F)c1)c1ccc(-n2cccn2)cc1` [Compound 89, N-(3,5-Bis-trifluoromethyl-phenyl)-4-pyrazol-1-yl-benzenesulfonamide], for which the IC50 was determined as 275 ± 45 µM.

With `CCOC(=O)c1[nH]c(C)c(S(=O)(=O)Nc2ccc(Cl)cc2)c1C` [Compound 90, 4-(4-Chloro-phenylsulfamoyl)-3,5-dimethyl-1H-pyrrole-2-carboxylic acid ethyl ester], the 50% inhibitory concentration (IC50) was 331 ± 52 µM.

Regarding `Cc1[nH]c(C(=O)O)c(C)c1S(=O)(=O)Nc1cc(C(F)(F)F)cc(C(F)(F)F)c1` [Compound 91, 4-(3,5-Bis-trifluoromethyl-phenylsulfamoyl)-3,5-dimethyl-1H-pyrrole-2-carboxylic acid], the IC50 is 481 µM.

Turning to `Cc1[nH]c(C(=O)O)c(C)c1S(=O)(=O)Nc1ccc(Cl)cc1` [Compound 92, 4-(4-Chloro-phenylsulfamoyl)-3,5-dimethyl-1H-pyrrole-2-carboxylic acid], the 50% inhibitory concentration (IC50) was 418 µM.

Consider `CCOC(=O)c1sc(S(=O)(=O)Nc2ccc(Cl)cc2)nc1C` [Compound 93, 2-(4-Chloro-phenylsulfamoyl)-4-methyl-thiazole-5-carboxylic acid ethyl ester], for which the concentration for half-maximal inhibition (IC50) turned out to be 373 ± 373 µM.

As to `O=S(=O)(Nc1ccc(Cl)cc1)c1cc(Cl)c(O)c(Cl)c1` [Compound 94, 3,5-Dichloro-N-(4-chloro-phenyl)-4-hydroxy-benzenesulfonamide], the IC50 was determined as 227 ± 7 µM.

With `O=S(=O)(Nc1cc(C(F)(F)F)cc(C(F)(F)F)c1)c1cc(Cl)c(O)c(Cl)c1` [Compound 95, N-(3,5-Bis-trifluoromethyl-phenyl)-3,5-dichloro-4-hydroxy-benzenesulfonamide], the concentration for half-maximal inhibition (IC50) is 243 ± 11 µM.

In the case of `O=S(=O)(Nc1ccc(C(F)(F)F)cc1)c1cc(Cl)c(O)c(Cl)c1` [Compound 96, 3,5-Dichloro-4-hydroxy-N-(4-trifluoromethyl-phenyl)-benzenesulfonamide], the IC50 was 449 ± 51 µM.

Consider `O=[N+]([O-])c1ccc(S(=O)(=O)Nc2ccc(Cl)cc2)cc1` [Compound 97, N-(4-Chloro-phenyl)-4-nitro-benzene-sulfonamide], for which the IC50 came to 394 ± 13 µM.

On to `O=[N+]([O-])c1ccc(S(=O)(=O)Nc2cc(C(F)(F)F)cc(C(F)(F)F)c2)cc1` [Compound 98, N-(3,5-Bis-trifluoromethyl-phenyl)-4-nitro-benzenesulfonamide], for which the IC50 came to 207 µM.

Consider `Nc1ccc(S(=O)(=O)Nc2cc(C(F)(F)F)cc(C(F)(F)F)c2)cc1Cl` [Compound 99, 4-Amino-N-(3,5-bis-trifluoromethyl-phenyl)-3-chloro-benzenesulfonamide], for which the IC50 is 248 ± 29 µM.

Turning to `O=[N+]([O-])c1cccc(S(=O)(=O)Nc2ccc(C(F)(F)F)cc2)c1` [Compound 100, 3-Nitro-N-(4-trifluoromethyl-phenyl)-benzenesulfonamide], the IC50 turned out to be 431 ± 5 µM.
